In brackets after ≈: the same amount, converted by molar mass. Read-outs that look alike come from different tables or passages of the source.
Tests used:
[1] = tested on: Candida parapsilosis ATCC 22019; test: Broth microdilution MIC/MFC; format: cell-based; conditions: for MIC: ATCC22019, read-out: MIC
From the text: (§1) In vitro antimicrobial activity assays - Methodology
(§2) The examined compounds 1 - 24 were screened in vitro for antibacterial and antifungal activities using the broth microdilution method according to procedure reported earlier by our research group and European Committee on Antimicrobial Susceptibility Testing (EUCAST) and Clinical and Laboratory Standards Institute (CLSI) guidelines against a panel of reference and clinical or saprophytic strains of microorganisms, in-cluding Gram-positive bacteria, Staphylococcus aureus ATCC 43300 (Methicillin Resistant S. aureus – MRSA), Staphylococcus aureus ATCC 29213 (Methicillin Susceptible S. aureus – MSSA), Staphylococcus epidermidis ATCC 12228, Enterococcus faecalis ATCC 29212, Micro-coccus luteus ATCC 10240, Bacillus subtilis ATCC 6633 and Bacillus cereus ATCC 10876), Gram-negative bacteria (Bordetella bronchiseptica ATCC 4617, Escherichia coli ATCC 25922, Klebsiella pneumoniae ATCC 13883, Proteus mirabilis ATCC 12453, Salmonella typhimurium ATCC 14028 and Pseudomonas aeruginosa ATCC 9027) and fungi belonging to yeasts (Can-dida albicans ATCC 10231, Candida albicans ATCC 2091, Candida parapsilosis ATCC 22019, Candida glabrata ATCC 90030 and Candida krusei ATCC 14243). The microorganisms be-longing to ATCC came from American Type Culture Collection, routinely used for the evaluation of antimicrobials. All the used microbial cultures were first subcultured on nu-trient agar or Sabouraud agar at 35°C for 18-24 h or 30°C for 24-48 h for bacteria and fungi, […]
(§3) The surface of Mueller-Hinton agar (for bacteria) and RPMI 1640 with MOPS (for fungi) were inoculated with the suspensions of bacterial or fungal species. Microbial suspensions were prepared in sterile saline with an optical density of McFarland standard scale 0.5.
(§4) Samples containing examined compounds were dissolved in dimethyl sulfoxide (DMSO).
(§5) Furthermore, bacterial and fungal suspensions were put onto Petri dishes with solid me-dia containing 2 mg/mL of the tested compounds followed incubation at 37°C for 24h and 30°C for 48h for bacteria and fungi, respectively. The inhibition of microbial growth was judged by comparison with a control culture prepared without any sample tested. Ciprof-loxacin, vancomycin, nitrofurantoin, cefuroxime, ampicillin or nystatin (Sigma) were used as a reference antibacterial or antifungal compounds, respectively.
(§6) Subsequently, the MIC (Minimal Inhibitory Concentration) of the compounds was ex-amined by the microdilution broth method, using their two-fold dilutions in Mueller- […]
(§7) Hinton broth or (for bacteria) and RPMI 1640 broth with MOPS (for fungi) prepared in 96-well polystyrene plates. Final concentrations of the compounds ranged from 1000 to 0.488 µg/ml. Microbial suspensions were prepared in 0.85% NaCl with an optical density of 0.5 McFarland standard. Next each bacterial or fungal suspension was added per each well containing broth and various concentrations of the examined compounds. After incuba-

[2] = tested on: Candida krusei ATCC 14243; test: Broth microdilution MIC/MFC; format: cell-based; conditions: Pichia kudriavzevii, ATCC14243, read-out: MIC
From the text: as §1, §2, §3, §4, §5, §6, §7

[3] = tested on: Candida albicans ATCC 10231; test: Broth microdilution MIC/MFC; format: cell-based; conditions: for MIC: ATCC10231, read-out: MIC; for MFC: ATCC10231, read-out: MFC
From the text: as §1, §2, §3, §4, §5, §6, §7

[4] = tested on: Candida glabrata ATCC 90030; test: Broth microdilution MIC/MFC; format: cell-based; conditions: Nakaseomyces glabratus, ATCC90030, read-out: MIC
From the text: as §1, §2, §3, §4, §5, §6, §7

[5] = tested on: Candida albicans ATCC 2091; test: Broth microdilution MIC/MFC; format: cell-based; conditions: for MIC: ATCC2091, read-out: MIC; for MFC: ATCC2091, read-out: MFC
From the text: as §1, §2, §3, §4, §5, §6, §7

[6] = tested on: Bacillus subtilis ATCC 6633; test: Broth microdilution MIC/MBC; format: cell-based; conditions: for MBC: ATCC6633; for MIC: ATCC6633, read-out: MIC
From the text: Detailed procedures are presented in the Supplementary Materials. […]
as §1, §2, §3, §4, §5, §6, §7

[7] = tested on: Staphylococcus aureus ATCC 29213; test: Broth microdilution MIC/MBC; format: cell-based; conditions: for MBC / MIC: ATCC29213
From the text: as §1
as §2, with “antimicrobials.” for “antimicrobials. All the used microbial cultures were first subcultured on nu-trient agar or Sabouraud agar at 35°C for 18-24 h or 30°C for 24-48 h for bacteria and fungi,”
(§8) Samples containing examined compounds were dissolved in dimethyl sulfoxide (DMSO). […]
as §6, §7

[8] = tested on: Salmonella typhimurium ATCC 14028; test: Broth microdilution MIC/MBC; format: cell-based; conditions: Salmonella enterica
From the text: as §1
as §2, with “antimicrobials.” for “antimicrobials. All the used microbial cultures were first subcultured on nu-trient agar or Sabouraud agar at 35°C for 18-24 h or 30°C for 24-48 h for bacteria and fungi,”
as §8, §6, §7

[9] = tested on: Proteus mirabilis ATCC 12453; test: Broth microdilution MIC/MBC; format: cell-based; conditions: ATCC12453
From the text: as §1
as §2, with “antimicrobials.” for “antimicrobials. All the used microbial cultures were first subcultured on nu-trient agar or Sabouraud agar at 35°C for 18-24 h or 30°C for 24-48 h for bacteria and fungi,”
as §8, §6, §7

[10] = tested on: Staphylococcus aureus ATCC 43300; test: Broth microdilution MIC/MBC; format: cell-based; conditions: Staphylococcus aureus ATCC 43300 (MRSA)
From the text: as §1
as §2, with “antimicrobials.” for “antimicrobials. All the used microbial cultures were first subcultured on nu-trient agar or Sabouraud agar at 35°C for 18-24 h or 30°C for 24-48 h for bacteria and fungi,”
as §8, §6, §7

[11] = tested on: Pseudomonas aeruginosa ATCC 9027; test: Broth microdilution MIC/MBC; format: cell-based; conditions: ATCC9027
From the text: as §1
as §2, with “antimicrobials.” for “antimicrobials. All the used microbial cultures were first subcultured on nu-trient agar or Sabouraud agar at 35°C for 18-24 h or 30°C for 24-48 h for bacteria and fungi,”
as §8, §6, §7

[12] = tested on: Micrococcus luteus ATCC 10240; test: Broth microdilution MIC/MBC; format: cell-based; conditions: for MBC: ATCC10240; for MIC: ATCC10240, read-out: MIC
From the text: as §1
as §2, with “antimicrobials.” for “antimicrobials. All the used microbial cultures were first subcultured on nu-trient agar or Sabouraud agar at 35°C for 18-24 h or 30°C for 24-48 h for bacteria and fungi,”
as §8, §6, §7

[13] = tested on: Staphylococcus epidermidis ATCC 12228; test: Broth microdilution MIC/MBC; format: cell-based; conditions: for MBC: ATCC12228; for MIC: ATCC12228, read-out: MIC
From the text: as §1
as §2, with “antimicrobials.” for “antimicrobials. All the used microbial cultures were first subcultured on nu-trient agar or Sabouraud agar at 35°C for 18-24 h or 30°C for 24-48 h for bacteria and fungi,”
as §8, §6, §7

[14] = tested on: Bordetella bronchiseptica ATCC 4617; test: Broth microdilution MIC/MBC; format: cell-based; conditions: ATCC4617
From the text: as §1, §2, §3, §4, §5, §6, §7

[15] = tested on: Bacillus cereus ATCC 10876; test: Broth microdilution MIC/MBC; format: cell-based; conditions: for MBC: ATCC10876
From the text: as §1, §2, §3, §4, §5, §6, §7

[16] = tested on: Enterococcus faecalis ATCC 29212; test: Broth microdilution MIC/MBC; format: cell-based; conditions: for MIC: ATCC29212, read-out: MIC
From the text: as §1, §2, §3, §4, §5, §6, §7

[17] = tested on: Klebsiella pneumoniae ATCC 13883; test: Broth microdilution MIC/MBC; format: cell-based; conditions: ATCC13883
From the text: as §1, §2, §3, §4, §5, §6, §7

[18] = tested on: Escherichia coli ATCC 25922; test: Broth microdilution MIC/MBC; format: cell-based; conditions: ATCC25922
From the text: as §1, §2, §3, §4, §5, §6, §7

Compound	MIC ([1]; Lodderomyces parapsilosis) [µg/mL]	MIC [2] [µg/mL]	MIC [3] [µg/mL]	MIC [4] [µg/mL]	MIC [5] [µg/mL]	melting point [°C]	MIC [6] [µg/mL]	MBC/MIC [7]	MBC [7] [µg/mL]	MIC [7] [µg/mL]	MIC [8] [µg/mL]	MIC [9] [µg/mL]	MIC [10] [µg/mL]	MIC [11] [µg/mL]	MBC/MIC [12]	MBC [12] [µg/mL]	MIC [12] [µg/mL]	MBC/MIC [13]	MBC [13] [µg/mL]	MIC [13] [µg/mL]	further results
COc1ccc(/C=N/NC(=O)c2ccc(O)cc2O)cc1Cl [Compound 9, N-[(3-chloro-4-methoxyphenyl)methylidene]-2,4-dihydroxybenzohydrazide]	> 1000	> 1000	> 1000	> 1000	> 1000	256	125 (≈ 0.39 mM)	1	31.2 (≈ 0.0974 mM)	31.2 (≈ 0.0974 mM)	> 1000	> 1000	15.6 (≈ 0.0487 mM)	> 1000	4	500 (≈ 1.56 mM)	125 (≈ 0.39 mM)	2	125 (≈ 0.39 mM)	62.5 (≈ 0.195 mM)	MBC/MIC [6]: 4; MBC [6]: 500 µg/mL (≈ 1.56 mM); MBC [10]: 62.5 µg/mL (≈ 0.195 mM); MBC/MIC [10]: 4; MIC [14]: > 1000 µg/mL; MBC/MIC [15]: 4; MIC [15]: 15.62 µg/mL (≈ 0.0487 mM); MBC [15]: 62.5 µg/mL (≈ 0.195 mM); MIC ([15]; ATCC10876, read-out: MIC): 15.6 µg/mL (≈ 0.0487 mM); MBC/MIC [16]: 4; MBC ([16]; ATCC29212, read-out: MBC): 500 µg/mL (≈ 1.56 mM); MIC [16]: 125 µg/mL (≈ 0.39 mM); MIC [17]: > 1000 µg/mL; MIC [18]: > 1000 µg/mL
CCCCOc1ccc(/C=N/NC(=O)c2ccc(O)cc2O)cc1 [Compound 7, N-[(4-butoxyphenyl)methylidene]-2,4-dihydroxybenzohydrazide]	> 1000	> 1000	1000 (≈ 3.05 mM)	> 1000	500 (≈ 1.52 mM)	246	> 1000	> 1	> 1000	1000 (≈ 3.05 mM)	> 1000	> 1000	> 1000	> 1000	> 1	> 1000	1000 (≈ 3.05 mM)	2	1000 (≈ 3.05 mM)	500 (≈ 1.52 mM)	MFC/MIC [3]: > 1; MFC [3]: > 1000 µg/mL; MFC/MIC [5]: > 2; MFC [5]: > 1000 µg/mL; MIC [14]: > 1000 µg/mL; MBC/MIC [15]: > 1; MBC [15]: > 1000 µg/mL; MIC ([15]; ATCC10876, read-out: MIC): 1000 µg/mL (≈ 3.05 mM); MIC [16]: > 1000 µg/mL; MIC [17]: > 1000 µg/mL; MIC [18]: > 1000 µg/mL
CCCOc1ccc(/C=N/NC(=O)c2ccc(O)cc2O)cc1 [Compound 6, 2,4-dihydroxy-N-[(4-propoxyphenyl)methylidene]benzohydrazide]	1000 (≈ 3.18 mM)	> 1000	1000 (≈ 3.18 mM)	> 1000	500 (≈ 1.59 mM)	251	1000 (≈ 3.18 mM)	> 1	> 1000	1000 (≈ 3.18 mM)	> 1000	> 1000	1000 (≈ 3.18 mM)	> 1000	> 1	> 1000	1000 (≈ 3.18 mM)	> 1	> 1000	1000 (≈ 3.18 mM)	MFC/MIC [1]: > 1; MFC ([1]; Lodderomyces parapsilosis, ATCC22019, read-out: MFC): > 1000 µg/mL; MFC/MIC [3]: > 1; MFC [3]: > 1000 µg/mL; MFC/MIC [5]: > 2; MFC [5]: > 1000 µg/mL; MBC/MIC [6]: > 1; MBC [6]: > 1000 µg/mL; MBC [10]: > 1000 µg/mL; MBC/MIC [10]: > 1; MIC [14]: > 1000 µg/mL; MBC/MIC [15]: > 1; MBC [15]: > 1000 µg/mL; MIC ([15]; ATCC10876, read-out: MIC): 1000 µg/mL (≈ 3.18 mM); MIC [16]: > 1000 µg/mL; MIC [17]: > 1000 µg/mL; MIC [18]: > 1000 µg/mL
